Source: PubChem BioAssay (NCI)
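48-hour exposure; five concentrations; linearly interpolated endpoints. TGI: concentration producing complete growth inhibition.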

Columns and labels:
Assay in all cases: DTP human tumour cell line panel, 48 h
OVCAR-3 ovarian = test system: OVCAR-3 ovarian
HCC-2998 colon = test system: HCC-2998 colon
TK-10 renal = test system: TK-10 renal
SNB-75 CNS = test system: SNB-75 CNS
LXFL 529 NSCLC = test system: LXFL 529 NSCLC
DLD-1 colon = test system: DLD-1 colon
DMS 114 small cell lung = test system: DMS 114 small cell lung
HOP-18 NSCLC = test system: HOP-18 NSCLC
KM20L2 colon = test system: KM20L2 colon
SNB-78 CNS = test system: SNB-78 CNS
M19-MEL melanoma = test system: M19-MEL melanoma
XF 498 CNS = test system: XF 498 CNS
DMS 273 small cell lung = test system: DMS 273 small cell lung

Structure (SMILES) | TGI (OVCAR-3 ovarian) [µM] | TGI (HCC-2998 colon) [µM] | TGI (TK-10 renal) [µM] | TGI (SNB-75 CNS) [µM] | further results
C[C@@H](NC(=O)c1ccc(CNC(=O)/C=C/c2cccc(Oc3ccccc3)c2)cc1)c1ccccc1 | > 100 | > 100 | > 89.2 | 20.1 | 
COC(=O)C1=C(C(=O)OC)SC2(S1)C(C(=O)OC)=C(C(=O)OC)Sc1c2ssc1=Nc1ccc(Cl)cc1 | 2.71 | 1.02 | 2.69 | 2.3 | 
CC(=O)C1=C(C)N(c2ccc(C)cc2)C2(O)C3=C(C(=O)c4ccccc4C3=O)C(O)=CC12Cl (stereo not given) | 45 | 31.6 | 97 | > 100 | 
COP(=O)(OC)C(O)CC(C)C (stereo not given) | > 100 | > 100 | > 100 | > 100 | 
Nc1nc2c(ncn2Cc2ccccc2CO)c(=O)[nH]1 | > 100 | > 100 | > 100 | > 100 | 
O=C(O)CCCc1ccc2ccccc2c1 | > 100 | > 100 | > 100 |  | 
CCN(CC)CCNc1ccc2nnn3c4ccc(O)cc4c(=O)c1c23 | 22.7 | 15.4 | 18.9 | 14.1 | TGI (LXFL 529 NSCLC): 20.3 µM; TGI (DLD-1 colon): 17.5 µM; TGI (DMS 114 small cell lung): 22.1 µM; TGI (HOP-18 NSCLC): 42.7 µM; TGI (KM20L2 colon): 17.6 µM; TGI (SNB-78 CNS): 21.1 µM
CSC12c3cc(C)n(-c4ccccc4)c3CC(C)(C)CN1C(=O)C2Oc1ccccc1 (stereo not given) | > 100 | > 100 |  | > 100 | 
COc1ccc2nc3ccc(OC)cc3c(SCc3ccccc3)c2c1 | > 100 | > 100 | > 100 | > 100 | 
CC(OC(=O)C(CC(=O)OC(C)(C)C)NC(=O)OC(C)(C)C)C(=O)OCc1ccccc1 (stereo not given) | > 100 | > 100 | > 100 | > 100 | 
COC(=O)C1(C(=O)OC)N=C(C)OC1/C=C/c1ccccc1 (stereo not given) | > 100 | > 100 | > 100 | > 100 | 
CCOC1Oc2ccccc2-c2nc(SC)ncc21 (stereo not given) | > 100 |  | > 100 | > 100 | 
CSc1ncc2c(n1)sc1c(=O)n(-c3ccccc3)cnc12 | > 100 | > 100 | > 100 | > 100 | 
Cc1cccc(-c2cc(=O)c3c(C)cc(C)nc3[nH]2)c1 | 4.6 | > 48.1 | > 100 | 7.36 | 
COC(=O)/C=C/C1(O)C=CC(=O)C=C1 | 4.93 | 21 | 16.4 | 24 | 
O=C(C/C(=N/O)c1cc(-c2ccccc2)no1)c1ccccc1 | 41.9 | > 100 | > 100 |  | 
COC(=O)CCC(C)C1CCC2C3C(C[C@H](OC(C)=O)[C@]12C)[C@@]1(C)CCC2(C[C@H]1C[C@H]3OC(C)=O)OOC1(CC[C@]3(C)C4C[C@H](OC(C)=O)[C@]5(C)C(C(C)CCC(=O)OC)CCC5C4[C@H](OC(C)=O)C[C@@H]3C1)OO2 (stereo not given in full) | > 100 | > 100 | > 100 | > 100 | 

Structure (SMILES) | TGI (OVCAR-3 ovarian) [µM] | TGI (HCC-2998 colon) [µM] | TGI (TK-10 renal) [µM] | TGI (SNB-75 CNS) [µM] | further results
C[N+](C)(C)CC(=O)N/N=C/c1ccncc1 | > 100 |  | > 100 | > 100 | 
O=C1CSC(c2c[nH]c3ccccc23)N1c1ccccc1[N+](=O)[O-] (stereo not given) | > 100 | > 100 | > 100 |  | 
CC1=CC(=O)CC(C)(C)C1/C=C/C(C)=C/C=C/C(C)=C/C=C/C=C(C)/C=C/C=C(C)/C=C/C1=C(C)CC(O)CC1(C)C (stereo not given) | 72.1 | 99.1 | > 100 |  | 
FC(F)(Sc1ncc[nH]1)c1nc2ccccc2o1 | > 100 | > 100 | > 100 | > 100 | 
Cc1cc(S(=O)(=O)/N=C(/[N-]S(=O)(=O)c2ccc(Cl)cc2)[n+]2ccc(N(C)C)cc2)c(SCC(=O)O)cc1Cl | > 100 |  | > 100 | > 100 | 
CC1C(OC2O[C@@H]3O[C@@]4(C)CC[C@H]5[C@H](C)CC[C@@H](C2C)[C@@]35O4)O[C@@H]2O[C@@]3(C)CC[C@H]4[C@H](C)CC[C@@H]1[C@@]24O3 (stereo not given in full) | > 50 | > 50 | > 50 | > 50 | 
COc1ccc(/C=C2\CCC/C(=C\c3ccc(O)c(CN4CCCCC4)c3)C2=O)cc1 | 46.3 | 33.4 | 52.1 | > 71.8 | 
CCOC(=O)C(C(=S)SC)c1nn2c(=O)cc(C)nc2s1 (stereo not given) | 34.8 | 47.2 | 61.9 | 41.3 | 
O=C(O)CC(Sc1ccccc1)c1ccccc1 (stereo not given) | > 100 |  | > 100 | > 100 | 
Cn1c(=O)sc2cc(C(=S)N3CCC(Cc4ccccc4)CC3)ccc21 | > 100 |  | > 100 |  | 
Cc1c2ccncc2c(C)c2c1[nH]c1ccc(OCC(F)(F)F)cc12 | 3.29 |  | 3.58 | 3.65 | TGI (LXFL 529 NSCLC): 2.43 µM; TGI (M19-MEL melanoma): 3.49 µM; TGI (DLD-1 colon): 3.32 µM; TGI (XF 498 CNS): 3.07 µM; TGI (KM20L2 colon): 2.78 µM; TGI (SNB-78 CNS): 5.47 µM; TGI (DMS 273 small cell lung): 2.17 µM
Cc1ccc2nc(C=Nc3ccc(Cl)cc3)cc(C)c2c1 | 32.2 | 6.62 | 57 | 57.5 | 
COc1ccc(C(=O)/C=C/c2ccc(OCCSCCCCCCCCCCSCCOc3ccc(/C=C/C(=O)c4ccc(OC)c(OC)c4)cc3)cc2)cc1OC |  | > 100 | > 100 | > 100 | 
O=C1C=CC(=O)c2c1ccc1c3ccccc3n(Cc3cccc([N+](=O)[O-])c3)c21 | 34.6 | > 100 | 44.8 | > 100 | 
COc1ccc2cc(-c3nc(N)nc(N4N=C(C)CC4(C)C)n3)c(=N)oc2c1 | 28.5 | 32.6 | 72 |  | 
O=C1C=C(OCCCCl)C(=O)c2c(O)ccc(O)c21 | 1.38 | 3.37 | 3.46 | 2.69 | 
O=C(CCCl)NNC1=NCCCN1 | > 100 | > 100 | > 100 | > 100 | 
